Experimental data taken from patent publication US20250263390A1, “NOVEL SUBSTITUTED 6,7-DIHYDRO-5H-BENZO[7]ANNULENE COMPOUNDS AND THEIR DERIVATIVES, PROCESSES FOR THEIR PREPARATION AND THERAPEUTIC USES THEREOF” (SANOFI, priority 2022, published 2025).

Target: T1, ERα (Homo sapiens, UniProt P03372)
T1 construct: host or cells: MCF7
T1 sequence (P03372 1-595): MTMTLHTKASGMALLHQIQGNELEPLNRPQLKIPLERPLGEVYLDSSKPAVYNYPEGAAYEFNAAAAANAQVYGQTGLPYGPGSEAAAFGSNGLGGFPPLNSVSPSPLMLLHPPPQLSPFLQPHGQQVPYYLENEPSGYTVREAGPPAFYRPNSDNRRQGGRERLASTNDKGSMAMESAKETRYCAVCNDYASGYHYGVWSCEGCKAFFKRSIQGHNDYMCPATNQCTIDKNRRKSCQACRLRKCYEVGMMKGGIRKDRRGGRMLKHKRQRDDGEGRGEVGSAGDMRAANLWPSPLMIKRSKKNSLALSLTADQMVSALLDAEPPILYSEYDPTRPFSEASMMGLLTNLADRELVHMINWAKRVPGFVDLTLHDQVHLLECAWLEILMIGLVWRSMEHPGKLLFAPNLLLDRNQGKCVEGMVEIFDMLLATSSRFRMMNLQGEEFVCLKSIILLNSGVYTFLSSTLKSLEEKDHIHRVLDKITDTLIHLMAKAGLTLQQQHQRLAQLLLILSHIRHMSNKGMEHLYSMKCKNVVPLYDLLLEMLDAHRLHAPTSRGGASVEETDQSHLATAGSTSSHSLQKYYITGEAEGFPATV
Assay: Estrogen receptor degradation activity: breast cancer cell ERα in cell western assay
Assay type: cell-based
Settings: MCF7 cells, 4 hours, relative to fulvestrant 0.1 μM positive control
Method: Test: Estrogen Receptor Degradation Activity Said test involves measuring the in vitro degradation activity of the compounds of the Table 1a. The measurements of the degradation activities were made using a breast cancer cell ERα in cell western assay as described hereunder. MCF7 cells (ATCC) were seeded in 384 wells microplate (collagen coated) at a concentration of 10000 cells/30 μL per well in red phenol free MEM alpha medium (invitrogen) containing 5% charcoal dextran striped FBS. The following day, 9 points serial 1:5 dilution of each compound was added to the cells in 2.5p L at final concentrations ranging from 0.3-0.0000018 μM (in table 2), or 0.1 μM for fulvestrant (using as positive control). At 4 hours post compound addition the cells were fixed by adding 25 μL of formalin (final concentration 5% formalin containing 0.1% triton) for 10 minutes at room temperature and then washed twice with PBS. Then, 50 μL of LI-COR blocking buffer containing 0.1% Triton was added to plate for 30 minutes at room temperature. LI-COR blocking buffer was removed and cells were incubated overnight at cold room with 50 μL anti-ER rabbit monoclonal antibody (Thermo scientific MA1-39540) diluted at 1:1000 in LI-COR blocking buffer containing 0.1% tween-20. Wells which were treated with blocking buffer but no antibody were used as background control. Wells were washed twice with PBS (0.1% tween-20) and incubated at 37° C. for 60 minutes in LI-COR (0.1% tween-20) containing goat anti-rabbit antibody Alexa 488 (1:1000) and Syto-64 a DNA dye (2 μM final concentration). Cells were then washed 3 times in PBS and scanned in ACUMEN explorer (TTP-Labtech). Integrated intensities in the green fluorescence and red fluorescence were measured to determine the levels of ERα and DNA respectively. The degradation activity with respect to estrogen receptors in this test is given by the concentration which degrades 50% of the estrogen receptor (or IC50) in nM. The % of ERα levels decrease were determined as follows: % inhibition=100*(1−(sample−fulvestrant: DMSO−fulvestrant)).

% Degradation At 0.3 μM	SMILES
95%	Cc1ccc(C2=C(c3ccc(CC4CN(CCCF)C4)cc3)c3ccc(C(=O)O)cc3CCC2)cc1O [Compound 56, 9-(4-((1-(3-fluoropropyl)azetidin-3-yl)methyl)phenyl)-8-(3-hydroxy-4-methylphenyl)-6,7-dihydro-5H-benzo[7]annulene-3-carboxylic acid]
91%	COc1cc(C)cc(C)c1C1=C(c2ccc(CC3CN(CCCF)C3)cc2)c2ccc(C(=O)O)cc2CCC1 [Compound 72, 9-(4-((1-(3-fluoropropyl)azetidin-3-yl)methyl)phenyl)-8-(2-methoxy-4,6-dimethylphenyl)-6,7-dihydro-5H-benzo[7]annulene-3-carboxylic acid]
100%	COc1c(F)ccc(C)c1C1=C(c2ccc(CC3CN(CCCF)C3)cc2)c2ccc(C(=O)O)cc2CCC1 [Compound 65, 8-(3-fluoro-2-methoxy-6-methylphenyl)-9-(4-((1-(3-fluoropropyl)azetidin-3-yl)methyl)phenyl)-6,7-dihydro-5H-benzo[7]annulene-3-carboxylic acid]
92%	CCc1ccc(C2=C(c3ccc(CC4CN(CCCF)C4)cc3)c3ccc(C(=O)O)cc3CCC2)c(C(F)(F)F)c1 [Compound 70, 8-(4-ethyl-2-(trifluoromethyl)phenyl)-9-(4-((1-(3-fluoropropyl)azetidin-3-yl)methyl)phenyl)-6,7-dihydro-5H-benzo[7]annulene-3-carboxylic acid]
90%	Cc1cccc(C(F)F)c1C1=C(c2ccc(CC3CN(CCCF)C3)cc2)c2ccc(C(=O)O)cc2CCC1 [Compound 66, 8-(2-(difluoromethyl)-6-methylphenyl)-9-(4-((1-(3-fluoropropyl)azetidin-3-yl)methyl)phenyl)-6,7-dihydro-5H-benzo[7]annulene-3-carboxylic acid]
84%	Cc1ccc(F)c(C)c1C1=C(c2ccc(CC3CN(CCCF)C3)cc2)c2ccc(C(=O)O)cc2CCC1 [Compound 73, 8-(3-fluoro-2,6-dimethylphenyl)-9-(4-((1-(3-fluoropropyl)azetidin-3-yl)methyl)phenyl)-6,7-dihydro-5H-benzo[7]annulene-3-carboxylic acid]
95%	CC(F)(F)c1cc(F)ccc1C1=C(c2ccc(CC3CN(CCCF)C3)cc2)c2ccc(C(=O)O)cc2CCC1 [Compound 62, 8-(2-(1,1-difluoroethyl)-4-fluorophenyl)-9-(4-((1-(3-fluoropropyl)azetidin-3-yl)methyl)phenyl)-6,7-dihydro-5H-benzo[7]annulene-3-carboxylic acid]
95%	COc1ccc(C(F)F)c(C2=C(c3ccc(CC4CN(CCCF)C4)cc3)c3ccc(C(=O)O)cc3CCC2)c1.Cl [Compound 60, 8-(2-(difluoromethyl)-5-methoxyphenyl)-9-(4-((1-(3-fluoropropyl)azetidin-3-yl)methyl)phenyl)-6,7-dihydro-5H-benzo[7]annulene-3-carboxylic acid, hydrochloride]
90%	O=C(O)c1ccc2c(c1)CCCC(c1ccc(C(F)(F)F)c(O)c1)=C2c1ccc(CC2CN(CCCF)C2)cc1 [Compound 52, 9-(4-((1-(3-fluoropropyl)azetidin-3-yl)methyl)phenyl)-8-(3-hydroxy-4-(trifluoromethyl)phenyl)-6,7-dihydro-5H-benzo[7]annulene-3-carboxylic acid]
91%	Cc1cc(C2=C(c3ccc(CC4CN(CCCF)C4)cc3)c3ccc(C(=O)O)cc3CCC2)ccc1C(F)F.Cl [Compound 42, 8-(4-(difluoromethyl)-3-methylphenyl)-9-(4-((1-(3-fluoropropyl)azetidin-3-yl)methyl)phenyl)-6,7-dihydro-5H-benzo[7]annulene-3-carboxylic acid, hydrochloride]

Continued, compound first:

SMILES	% Degradation At 0.3 μM
CC1(C)CCC(C2=C(c3ncc(CC4CN(CCCF)C4)cc3F)c3ccc(C(=O)O)cc3CCC2)CC1 [Compound 10, 8-(4,4-dimethylcyclohexyl)-9-(3-fluoro-5-((1-(3-fluoropropyl)azetidin-3-yl)methyl)pyridin-2-yl)-6,7-dihydro-5H-benzo[7]annulene-3-carboxylic acid]	83%
O=C(O)C(F)(F)F.O=C(O)c1ccc2c(c1)CCCC(CCCO)=C2c1ccc(CC2CN(CCCF)C2)cc1 [Compound 15, 9-(4-((1-(3-fluoropropyl)azetidin-3-yl)methyl)phenyl)-8-(3-hydroxypropyl)-6,7-dihydro-5H-benzo[7]annulene-3-carboxylic acid, 2,2,2-trifluoroacetic acid]	100%
Cc1c(OC(F)F)cccc1C1=C(c2ccc(CC3CN(CCCF)C3)cc2)c2ccc(C(=O)O)cc2CCC1 [Compound 14, 8-(3-(difluoromethoxy)-2-methylphenyl)-9-(4-((1-(3-fluoropropyl)azetidin-3-yl)methyl)phenyl)-6,7-dihydro-5H-benzo[7]annulene-3-carboxylic acid]	93%
COc1c(C2=C(c3ccc(CC4CN(CCCF)C4)cc3)c3ccc(C(=O)O)cc3CCC2)cccc1C(F)(F)F [Compound 4, 9-(4-((1-(3-fluoropropyl)azetidin-3-yl)methyl)phenyl)-8-(2-methoxy-3-(trifluoromethyl)phenyl)-6,7-dihydro-5H-benzo[7]annulene-3-carboxylic acid]	83%
Cc1ccc(C(F)(F)F)c(C2=C(c3ccc(CC4CN(CCCF)C4)cc3)c3ccc(C(=O)O)cc3CCC2)c1.Cl [Compound 20, 9-(4-((1-(3-fluoropropyl)azetidin-3-yl)methyl)phenyl)-8-(5-methyl-2-(trifluoromethyl)phenyl)-6,7-dihydro-5H-benzo[7]annulene-3-carboxylic acid, hydrochloride]	91%
COc1ccc(C(F)(F)F)c(C2=C(c3ccc(CC4CN(CCCF)C4)cc3)c3ccc(C(=O)O)cc3CCC2)c1 [Compound 35, 9-(4-((1-(3-fluoropropyl)azetidin-3-yl)methyl)phenyl)-8-(5-methoxy-2-(trifluoromethyl)phenyl)-6,7-dihydro-5H-benzo[7]annulene-3-carboxylic acid]	91%
Cc1ccc(C2=C(c3ccc(CC4CN(CCCF)C4)cc3)c3ccc(C(=O)O)cc3CCC2)cc1C(F)(F)F [Compound 29, 9-(4-((1-(3-fluoropropyl)azetidin-3-yl)methyl)phenyl)-8-(4-methyl-3-(trifluoromethyl)phenyl)-6,7-dihydro-5H-benzo[7]annulene-3-carboxylic acid]	93%
COc1cccc(C2=C(c3ccc(CC4CN(CCCF)C4)cc3)c3ccc(C(=O)O)cc3CCC2)c1C [Compound 7, 9-(4-((1-(3-fluoropropyl)azetidin-3-yl)methyl)phenyl)-8-(3-methoxy-2-methylphenyl)-6,7-dihydro-5H-benzo[7]annulene-3-carboxylic acid]	93%
Cc1cccc(C(F)(F)F)c1C1=C(c2ccc(CC3CN(CCCF)C3)cc2)c2ccc(C(=O)O)cc2CCC1 [Compound 33, 9-(4-((1-(3-fluoropropyl)azetidin-3-yl)methyl)phenyl)-8-(2-methyl-6-(trifluoromethyl)phenyl)-6,7-dihydro-5H-benzo[7]annulene-3-carboxylic acid]	91%
COc1cccc(C2=C(c3ccc(CC4CN(CCCF)C4)cc3)c3ccc(C(=O)O)cc3CCC2)c1C(F)(F)F [Compound 11, 9-(4-((1-(3-fluoropropyl)azetidin-3-yl)methyl)phenyl)-8-(3-methoxy-2-(trifluoromethyl)phenyl)-6,7-dihydro-5H-benzo[7]annulene-3-carboxylic acid]	86%
O=C(O)c1ccc2c(c1)CCCC(c1ccc(OC(F)(F)F)cc1)=C2c1ccc(CC2CN(CCCF)C2)cc1 [Compound 27, 9-(4-((1-(3-fluoropropyl)azetidin-3-yl)methyl)phenyl)-8-(4-(trifluoromethoxy)phenyl)-6,7-dihydro-5H-benzo[7]annulene-3-carboxylic acid]	93%
